From US9451775B2, “Heterocyclic compounds as pesticides” (Bayer Intellectual Property GmbH, priority 2008, dated 2016)

Tests used:
[1] = system: greenhouse red spidermite (Tetranychus urticae); experiment: Tetranychus test, OP-resistant (spray treatment); format: in vivo; conditions: application rate of 100 g/ha; sprayed bean leaf discs
Description: Tetranychus Test, OP-Resistant (Spray Treatment)
• Solvents: 78.0 parts by weight of acetone • 1.5 parts by weight of dimethylformamide • Emulsifier: 0.5 part by weight of alkylaryl polyglycol ether
To produce a suitable preparation of active compound, 1 part by weight of active compound is mixed with the stated amounts of solvent and emulsifier, and the concentrate is diluted with emulsifier-containing water to the desired concentration.
Discs of the leaves of beans (Phaseolus vulgaris) which are infested by all stages of the greenhouse red spidermite (Tetranychus urticae) are sprayed with an active compound preparation of the desired concentration.
After the desired period of time, the effect in % is determined. 100% means that all spidermites have been killed; 0% means that none of the spidermites have been killed.

[2] = system: green peach aphid (Myzus persicae); experiment: Myzus test (spray treatment); format: in vivo; conditions: foliar, application rate of 500 g/ha, sprayed Chinese cabbage leaf discs, read-out: activity (effect in %, aphids killed)
Procedure, shortened: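 Chinese cabbage leaf discs heavily infested with all stages of the aphid are sprayed with compound formulated in acetone/dimethylformamide with alkylaryl polyglycol ether emulsifier, diluted in emulsifier-containing water. After a set period, kill is scored in %: 100% all aphids dead, 0% none.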

[3] = logP determination by HPLC (formic acid method); format: physicochemical; conditions: reversed-phase HPLC column (C18), pH 3.4, HPLC on reversed-phase column (C18), acidic range (pH 3.4), 55° C.; read-out: logP (HCOOH)
Procedure, shortened: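 Reversed-phase C18 HPLC at 55 °C, pH 3.4, with a 4.25 min gradient from 10% to 95% acetonitrile (formic acid-modified water/acetonitrile phases). logP was derived from retention time by linear interpolation between unbranched alkan-2-ones (C3-C16) of known logP.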

[4] = system: Boophilus microplus; experiment: Boophilus microplus test (injection); format: in vivo; conditions: application rate of 20 μg/animal; injected into the abdomen
Description: Boophilus microplus Test (Injection) • Solvent: Dimethyl sulphoxide To produce a suitable preparation of active compound, 1 part by weight of active compound is mixed with the stated amounts of solvent, and the concentrate is diluted with water to the desired concentration. The solution of active compound is injected into the abdomen (Boophilus microplus), and the animals are transferred into dishes and stored in a climatized room. The activity is checked by examination for deposition of fertile eggs, After the desired period of time, the effect in % is determined. 100% means that none of the ticks has laid fertile eggs.

| SMILES | chromatographic logP [3] | activity (effect in %, spidermites killed) [1] | pest or weed control at 500 g/ha [2] | activity (effect in %, deposition of fertile eggs) [4] |
| --- | --- | --- | --- | --- |
| FC(F)(F)c1cccc(-c2cnc(-c3cccnc3)s2)n1 [Ex. No. 49] | 2.81 | – | ≥ 80% | ≥ 80% |
| c1cnc(-n2nccc2-c2nnc(-c3cccnc3)s2)nc1 [compound 161] | 1.13 | – | ≥ 80% | – |
| c1cnc(-c2cccc(-c3nnc(-c4cncnc4)s3)n2)nc1 [compound 164] | 1.39 | – | ≥ 80% | – |
| Cn1nc(-c2cccnc2)cc1-c1ccn(Cc2ccccn2)n1 [compound 166] | 0.91 | – | ≥ 80% | – |
| COCc1nccc(-c2cc(-c3cccnc3)nn2C)n1 [compound 167] | 0.83 | – | ≥ 80% | – |
| Cn1nc(-c2cccnc2)cc1C1=NN(c2ncccn2)CCO1 [compound 168] | 0.95 | – | ≥ 80% | – |
| Cn1nc(-c2cccnc2)cc1-c1ccn(-c2ccccn2)n1 [compound 169] | 1.64 | – | ≥ 80% | – |

More lines, main results first:

| chromatographic logP [3] | SMILES | activity (effect in %, spidermites killed) [1] | pest or weed control at 500 g/ha [2] | activity (effect in %, deposition of fertile eggs) [4] |
| --- | --- | --- | --- | --- |
| 1.69 | Cc1nc(-c2cccnc2)sc1-c1ccn(Cc2ccccn2)n1 [Ex. No. 27] | ≥ 80% | ≥ 80% | – |
| 0.84 | c1cncc(-c2nnc(-c3cc[nH]n3)s2)c1 [compound 162] | – | ≥ 80% | – |
| 1.07 | c1cncc(-c2nnc(-c3cccnc3)s2)c1 [compound 163] | – | ≥ 80% | – |
| 1.91 | Fc1cncc(-c2nnc(-c3cccc(-c4ncccn4)n3)s2)c1 [compound 165] | – | ≥ 80% | – |
| 0.42 | Cn1nc(-c2cccnc2)cc1-c1cc[nH]n1 [compound 170] | – | ≥ 80% | – |
| 0.87 | Cn1nc(-c2cccnc2)cc1-c1ccnc(-c2ccccn2)n1 [compound 171] | – | ≥ 80% | – |
